Values joined by “and” are separate entries in the source; they are usually repeats but may differ in a detail not shown here. Equal entries are not always repeated.
Assays:
GST-Flk1 = molecular target: T1, GST-Flk1 (Mus musculus, UniProt P35918); experiment: GST-FLK-1 bioassay (ELISA, tyrosine kinase activity on poly(glu,tyr)); assay type: biochemical
T1 construct: GST-Flk1cd purified from sf9 recombinant baculovirus transformation (SUGEN, Inc.); host or cells: Sf9 insect cells (recombinant baculovirus)
T1 sequence (P35918 784-1345 limits assumed): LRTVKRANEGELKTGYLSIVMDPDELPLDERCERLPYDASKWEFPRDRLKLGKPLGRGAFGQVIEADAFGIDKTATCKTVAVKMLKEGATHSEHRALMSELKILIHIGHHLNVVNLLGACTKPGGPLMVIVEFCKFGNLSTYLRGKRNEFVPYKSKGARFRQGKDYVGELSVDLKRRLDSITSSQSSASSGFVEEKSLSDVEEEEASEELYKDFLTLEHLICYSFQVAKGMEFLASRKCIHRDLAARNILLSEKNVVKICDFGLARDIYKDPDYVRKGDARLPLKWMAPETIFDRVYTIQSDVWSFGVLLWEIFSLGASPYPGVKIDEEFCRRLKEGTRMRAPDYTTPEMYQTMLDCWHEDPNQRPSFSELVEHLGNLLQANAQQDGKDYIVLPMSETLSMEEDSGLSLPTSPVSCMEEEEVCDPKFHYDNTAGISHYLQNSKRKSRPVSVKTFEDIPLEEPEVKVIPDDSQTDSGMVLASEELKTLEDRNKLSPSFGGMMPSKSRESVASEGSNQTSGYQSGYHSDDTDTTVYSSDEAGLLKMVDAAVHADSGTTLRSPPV
Method: The assays described herein are performed in an ELISA (Enzyme-Linked Immunosorbent Sandwich Assay) format (Voller, et al., 1980, “Enzyme-Linked Immunosorbent Assay,” Manual of Clinical Immunology, 2d ed., Rose and Friedman, Am. Soc. Of Microbiology, Washington, D.C., pp. 359-371). The general procedure is as follows: a compound is introduced to cells expressing the test kinase, either naturally or recombinantly, for a selected period of time after which, if the test kinase is a receptor, a ligand known to activate the receptor is added. The cells are lysed and the lysate is transferred to the wells of an ELISA plate previously coated with a specific antibody recognizing the substrate of the enzymatic phosphorylation reaction. Non-substrate components of the cell lysate are washed away and the amount of phosphorylation on the substrate is detected with an antibody specifically recognizing phosphotyrosine compared with control cells that were not contacted with a test compound.
This assay analyzes the tyrosine kinase activity of GST-Flk1 on poly(glu,tyr) peptides.
• 1. Corning 96-well ELISA plates (Corning Catalog No. 5805-96). • 2. poly(glu,tyr) 4:1, lyophilizate (Sigma Catalog #P0275). • 3. Preparation of poly(glu,tyr)(pEY) coated assay plates: Coat 2 ug/well of poly(glu,tyr)(pEY) in 100 μL PBS, hold at room temperature for 2 hours or at 4° C. overnight. Cover plates well to prevent evaporation. • 4. PBS Buffer: for 1 L, mix 0.2 g KH2PO4, 1.15 g Na2HPO4, 0.2 g KCl and 8 g NaCl in approx. 900 ml dH2O. When all reagents have dissolved, adjust the pH to 7.2 with HCl. Bring total volume to 1 L with dH2O. • 5. PBST Buffer: to 1 L of PBS Buffer, add 1.0 ml Tween-20. • 6. TBB—Blocking Buffer: for 1 L, mix 1.21 g TRIS, 8.77 g NaCl, 1 ml TWEEN-20 in approximately 900 ml dH2O. Adjust pH to 7.2 with HCl. Add 10 g BSA, stir to dissolve. Bring total volume to 1 L with dH2O. Filter to remove particulate matter. • 7. 1% BSA in PBS: To make a 1× working solution, add 10 g BSA to approx. 990 ml PBS buffer, stir to dissolve. Adjust total volume to 1 L with PBS buffer, filter to remove particulate matter. • 8. 50 mM Hepes pH 7.5. • 9. GST-Flk1cd purified from sf9 recombinant baculovirus transformation (SUGEN, Inc.). • 10. 4% DMSO in dH2O. • 11. 10 mMATP in dH2O. • 12. 40 mM MnCl2 • 13. Kinase Dilution Buffer (KDB): mix 10 ml Hepes (pH 7.5), 1 ml 5M NaCl, 40 μL 100 mM sodium orthovanadate and 0.4 ml of 5% BSA in dH2O with 88.56 ml dH2O. • 14. NUNC 96-well V bottom polypropylene plates, Applied Scientific Catalog #AS-72092 • 15. EDTA: mix 14.12 g ethylenediaminetetraacetic acid (EDTA) to approx. 70 ml dH2O. Add 10 N NaOH until EDTA dissolves. Adjust pH to 8.0. Adjust total volume to 100 ml with dH2O. • 16. 1^0 Antibody Dilution Buffer: mix 10 ml of 5% BSA in PBS buffer with 89.5 ml TBST. • 17. Anti-phosphotyrosine monoclonal antibody conjugated to horseradish peroxidase (PY99 HRP, Santa Cruz Biotech). • 18. 2,2′-Azinobis(3-ethylbenzthiazoline-6-sulfonic acid (ABTS, Moss, Cat. No. ABST). • 19. 10% SDS. Procedure: • 1. Coat Corning 96-well ELISA plates with 2 μg of polyEY peptide in sterile PBS as described in step 3 of Materials and Reagents. • 2. Remove unbound liquid from wells by inverting plate. Wash once with TBST. Pat the plate on a paper towel to remove excess liquid. • 3. Add 100 μl of 1% BSA in PBS to each well. Incubate, with shaking, for 1 hr. at room temperature. • 4. Repeat step 2. • 5. Soak wells with 50 mM HEPES (pH7.5) (150 μl/well). • 6. Dilute test compound with dH2O/4% DMSO to 4 times the desired final assay concentration in 96-well polypropylene plates. • 7. Add 25 μl diluted test compound to ELISA plate. In control wells, place 25 μl of dH2O/4% DMSO. • 8. Add 25 μl of 40 mM MnCl2 with 4×ATP (2 μM) to each well. • 9. Add 25 μl 0.5M EDTA to negative control wells. • 10. Dilute GST-Flk1 to 0.005 μg (5 ng)/well with KDB. • 11. Add 50 μl of diluted enzyme to each well. • 12. Incubate, with shaking, for 15 minutes at room temperature. • 13. […]

PDGFR = molecular target: T2, PDGFR (Homo sapiens, UniProt P09619); experiment: PDGFR bioassay (ELISA, in vitro kinase activity); assay type: biochemical; conditions: PDGFR-β expressing NIH 3T3 cell lysate; read-out: IC50 (μM) PDGF-R
T2 construct: SUGEN, Inc; host or cells: NIH 3T3 cell lysate; receptor captured on plate with monoclonal anti-PDGFR antibody 28D4C10
T2 sequence (P09619 33-1106, species assumed): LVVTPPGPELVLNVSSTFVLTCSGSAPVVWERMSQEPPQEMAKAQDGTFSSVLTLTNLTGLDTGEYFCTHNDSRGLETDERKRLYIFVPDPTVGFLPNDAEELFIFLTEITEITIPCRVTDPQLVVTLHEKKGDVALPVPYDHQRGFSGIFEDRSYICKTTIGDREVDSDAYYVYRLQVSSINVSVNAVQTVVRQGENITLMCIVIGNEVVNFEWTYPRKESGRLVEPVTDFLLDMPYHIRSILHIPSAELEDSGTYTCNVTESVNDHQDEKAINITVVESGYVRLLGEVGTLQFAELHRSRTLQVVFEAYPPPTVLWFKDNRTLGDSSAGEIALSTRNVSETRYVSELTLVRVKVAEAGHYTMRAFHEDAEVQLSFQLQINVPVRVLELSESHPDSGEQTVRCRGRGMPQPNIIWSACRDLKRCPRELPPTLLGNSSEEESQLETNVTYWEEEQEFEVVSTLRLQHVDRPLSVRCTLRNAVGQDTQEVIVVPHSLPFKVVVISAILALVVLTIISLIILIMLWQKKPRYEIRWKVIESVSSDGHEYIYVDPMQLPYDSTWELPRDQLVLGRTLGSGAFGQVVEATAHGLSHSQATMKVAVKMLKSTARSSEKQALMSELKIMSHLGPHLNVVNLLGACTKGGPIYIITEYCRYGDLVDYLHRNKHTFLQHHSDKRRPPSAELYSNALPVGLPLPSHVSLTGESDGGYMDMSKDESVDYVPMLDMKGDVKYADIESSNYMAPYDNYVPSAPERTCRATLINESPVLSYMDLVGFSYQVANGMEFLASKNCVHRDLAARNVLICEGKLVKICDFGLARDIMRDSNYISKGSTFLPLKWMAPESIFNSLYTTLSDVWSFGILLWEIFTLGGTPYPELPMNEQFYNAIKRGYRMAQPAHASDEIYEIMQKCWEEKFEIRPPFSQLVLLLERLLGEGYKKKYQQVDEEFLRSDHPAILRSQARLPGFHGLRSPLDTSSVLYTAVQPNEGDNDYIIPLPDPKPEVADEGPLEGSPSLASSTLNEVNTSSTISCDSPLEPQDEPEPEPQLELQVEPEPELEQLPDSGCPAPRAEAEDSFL

IC50 (GST-Flk1)	IC50 (PDGFR)	SMILES
2.7 µM	0.19 µM	O=C(CN1CCC(N2CCCC2)CC1)Nc1cccc(Nc2ncc(-c3ccsc3)cn2)c1 [Example 55, 2-(4-pyrrolidin-1-yl-piperidine-1-yl)-N-[3-(5-thiophen-3-yl-pyrimidin-2-ylamino)-phenyl]-acetamide]
2.4 µM	0.06 µM	O=C(CNCCN1CCS(=O)(=O)CC1)Nc1cccc(Nc2ncc(-c3ccsc3)cn2)c1 [Example 60, 2-[2-(1,1-dioxo-1λ^6-thiomorpholin-4-yl)-ethylamino]-N-[3-(5-thiophen-3-yl-pyrimidin-2-ylamino)-phenyl]-acetamide]
3.5 µM	0.21 µM	O=C(Nc1cccc(Nc2ncc(-c3ccsc3)cn2)c1)N1CCCC1CN1CCCC1 (stereo not drawn) [Example 48]
5.2 µM	0.78 µM	O=C(NCCN1CCOCC1)Nc1ccc(Nc2ncc(-c3ccsc3)cn2)cc1 [Example 31, N-(2-morpholin-4-ylethyl)-N′-{4-[(5-thien-3-ylpyrimidin-2-yl)amino]phenyl}urea]
3.1 µM	0.23 µM	CCN(CC)CCNCC(=O)Nc1cccc(Nc2ncc(-c3ccsc3)cn2)c1 [Example 57, 2-(2-diethylamino-ethylamino)-N-[3-(5-thiophen-3-yl-pyrimidin-2-ylamino)-phenyl]-acetamide]
1.7 µM	0.16 µM	CCN(CC)CCNC(=O)Nc1cccc(Nc2ncc(-c3ccsc3)cn2)c1 [Example 50]
2.5 µM and 4 µM	0.08 µM and 0.43 µM	CN1CCN(CCNCC(=O)Nc2cccc(Nc3ncc(-c4ccsc4)cn3)c2)CC1 [Example 58, 2-[2-(4-methyl-piperazin-1-yl)-ethylamino]-N-[3-(5-thiophen-3-yl-pyrimidin-2-ylamino)-phenyl]-acetamide]
> 20 µM	> 20 µM	CCN(CC)CC(=O)Nc1cccc(Nc2cnc(-c3ccsc3)cn2)c1 [Example 41, N-(3-(5-(thiophen-3-yl)pyrazin-2-ylamino)phenyl)-2-(diethylamino)acetamide]
4.7 µM	1 µM	O=C(Nc1ccc(Nc2ncc(-c3ccsc3)cn2)cc1)N1CCOCC1 [Example 34, N-{4-[(5-thien-3-ylpyrimidin-2-yl)amino]phenyl}morpholine-4-carboxamide]
5.4 µM	0.47 µM	CN1CCN(C(=O)Nc2ccc(Nc3ncc(-c4ccsc4)cn3)cc2)CC1 [Example 35, 4-methyl-N-{4-[(5-thien-3-ylpyrimidin-2-yl)amino]phenyl}piperazine-1-carboxamide]
2.3 µM	0.18 µM	O=C(CN1CCCC1CN1CCCC1)Nc1cccc(Nc2ncc(-c3ccsc3)cn2)c1 (stereo not drawn) [Example 47, N-(3-(5-(thiophen-3-yl)pyrimidin-2-ylamino)phenyl)-2-(2-((pyrrolidin-1-yl)methyl)pyrrolidin-1-yl)acetamide]
2.8 µM	0.2 µM	O=C(CN1CCCC1)Nc1cccc(Nc2ncc(-c3ccsc3)cn2)c1 [Example 62, 2-pyrrolidin-1-yl-N-[3-(5-thiophen-3-yl-pyrimidin-2-ylamino)-phenyl]-acetamide]
6.2 µM	0.5 µM	O=C(Nc1ccc(Nc2ncc(-c3ccsc3)cn2)cc1)N1CCC(N2CCCC2)CC1 [Example 30, 4-pyrrolidin-1-yl-N-{4-[(5-thien-3-ylpyrimidin-2-yl)amino]phenyl}piperidine-1-carboxamide]

More lines, now with the values behind:

SMILES	IC50 (GST-Flk1)	IC50 (PDGFR)
Nc1cccc(Nc2ncc(-c3csc4ccccc34)cn2)c1 [Example 20, N-[5-(1-benzothien-3-yl)pyrimidin-2-yl]benzene-1,3-diamine]	> 20 µM	> 20 µM
COc1ccc(NC(=O)Nc2ncc(-c3ccsc3)cn2)cc1 [Example 9, N-(4-methoxyphenyl)-N′-(5-thien-3-ylpyrimidin-2-yl)urea]	> 20 µM	> 20 µM
CC(=O)Nc1cccc(Nc2ncc(-c3cccs3)cn2)c1 [Example 14, N-{3-[(5-thien-2-ylpyrimidin-2-yl)amino]phenyl}acetamide]	4.17 µM	0.94 µM
O=C(CN1CCCC1)Nc1ccc(Nc2ncc(-c3ccsc3)cn2)cc1 [Example 29, 2-pyrrolidin-1-yl-N-{4-[(5-thien-3-ylpyrimidin-2-yl)amino]phenyl}acetamide]	4 µM	0.43 µM
CC(=O)c1ccc(-c2cnc(Nc3cccc(N)c3)nc2)s1 [Example 19, 1-(5-{2-[(3-aminophenyl)amino]pyrimidin-5-yl}thien-2-yl)ethanone]	8.6 µM	2.4 µM
O=C(CNCCN1CCOCC1)Nc1ccc(Nc2ncc(-c3ccsc3)cn2)cc1 [Example 25, 2-(2-morpholinoethylamino)-N-(4-(5-(thiophen-3-yl)pyrimidin-2-ylamino)phenyl)acetamide]	5.4 µM	0.47 µM
O=C(CN1CCCC1CN1CCCC1)Nc1ccc(Nc2ncc(-c3ccsc3)cn2)cc1 (stereo not drawn) [Example 22, 2-[2-(pyrrolidin-1-ylmethyl)pyrrolidin-1-yl]-N-{4-[(5-thien-3-ylpyrimidin-2-yl)amino]phenyl}acetamide]	4.5 µM	0.41 µM
O=C(O)c1cccc(Nc2ncc(-c3ccsc3)cn2)c1 [Example 7, 3-[(5-thien-3-ylpyrimidin-2-yl)amino]benzoic acid]	16.2 µM	7.39 µM
CC(=O)Nc1ccc(Nc2ncc(-c3cccs3)cn2)cc1 [Example 13, N-[4-(5-thien-2-ylpyrimidin-2-ylamino]phenyl]acetamide]	9.86 µM	0.44 µM
O=C(CN1CCC(O)CC1)Nc1ccc(Nc2ncc(-c3ccsc3)cn2)cc1 [Example 28, 2-(4-hydroxypiperidin-1-yl)-N-{4-[(5-thien-3-ylpyrimidin-2-yl)amino]phenyl}acetamide]	4.9 µM	0.57 µM
Oc1ccc(Nc2ncc(-c3ccsc3)cn2)cc1 [Example 1, 4-[(5-thien-3-ylpyrimidin-2-yl)amino]phenol]	4.5 µM	0.52 µM
Nc1ccc(C(=O)Nc2ccc(Nc3ncc(-c4ccsc4)cn3)cc2)cc1 [Example 4, 4-amino-N-{4-[(5-thien-3-ylpyrimidin-2-yl)amino]phenyl}benzamide]	> 20 µM	0.5 µM
Nc1ccc(Nc2ncc(-c3ccsc3)cn2)cc1 [Example 8, N-(5-thien-3-ylpyrimidin-2-yl)benzene-1,4-diamine]	4.14 µM	0.55 µM
COc1ccc(Nc2ncc(-c3ccsc3)cn2)cc1 [Example 5, N-(4-methoxyphenyl)-5-thien-3-ylpyrimidin-2-amine]	> 20 µM	0.55 µM

Reference: patent US20070293484A1, “Thiophene Heteroaryl Amines” (SUGEN, INC., priority 2004, published 2007)
